Where two headings read alike, the source gives them in different places.
Key:
Recombinant Cat D = Recombinant Cat D (Homo sapiens (Human), UniProt P07339); assay: In vitro enzymatic Cathepsin D (Cat D) FRET assay; format: biochemical; conditions: read-out: IC50 IP (μM) CatD
In short: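 Cleavage of a 20 nM fluorophore/quencher peptide by CHO-expressed recombinant Cat D proceeded for one hour at pH 3.5 (0.05 M citrate, 5 mM CHAPS, 10% DMSO final). Tris addition neutralized the pH to end the reaction. Fluorescence was then measured (ex 500 nm/em 580 nm).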

[1] = test system: Aβ40 in conditioned medium of cells stably expressing Amyloid Precursor Protein (APP); assay: In vitro BACE-1 cell-based assay (Aβ40 sandwich ELISA); conditions: read-out: IC50 IP (μM) BACE1 cell
In short: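 APP-stable cells, pre-cultured 24 h at 37° C in DMEM/10% FBS, were treated 24 h with compound in a 10-point series starting at 100 μM or 10 μM (0.1% DMSO final). Secreted Aβ40 in conditioned medium was measured by pAb40/biotin-6E10 sandwich ELISA with Europium time-resolved fluorescence; IC50 from percent inhibition versus concentration.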

human recombinant BACE1 = human recombinant BACE1 (Homo sapiens (Human), UniProt P56817); assay: In vitro enzymatic BACE1 FRET assay; format: biochemical; conditions: read-out: IC50 IP (μM) BACE1 enzyme
Chain of human recombinant BACE1 (P56817 46-501): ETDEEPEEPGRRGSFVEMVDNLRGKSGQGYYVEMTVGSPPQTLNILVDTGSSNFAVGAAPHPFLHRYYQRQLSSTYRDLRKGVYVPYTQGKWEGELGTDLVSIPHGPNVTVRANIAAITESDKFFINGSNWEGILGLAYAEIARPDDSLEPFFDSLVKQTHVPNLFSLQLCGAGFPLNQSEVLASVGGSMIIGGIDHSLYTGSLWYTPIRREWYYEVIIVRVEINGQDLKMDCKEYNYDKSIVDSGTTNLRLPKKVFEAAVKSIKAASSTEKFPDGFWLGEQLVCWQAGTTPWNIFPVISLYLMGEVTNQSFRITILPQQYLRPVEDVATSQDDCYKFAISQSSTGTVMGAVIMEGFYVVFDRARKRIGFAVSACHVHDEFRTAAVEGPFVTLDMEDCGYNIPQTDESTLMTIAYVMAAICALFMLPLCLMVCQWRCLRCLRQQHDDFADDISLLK
In short: (§1)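 Ni-NTA-purified recombinant enzyme incubated 1 h with 50 nM FRET peptide substrate (fluorophore and quencher flanking the BACE cleavage site). Reaction stopped with Tris buffer raising pH to neutrality; cleavage-released fluorescence read at ex 488/em 590 nm.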

human recombinant BACE2 = human recombinant BACE2 (Homo sapiens (Human), UniProt Q9Y5Z0); assay: In vitro enzymatic BACE2 FRET assay; format: biochemical; conditions: read-out: IC50 IP (μM) BACE2 enzyme
Chain of human recombinant BACE2 (Q9Y5Z0 63-518): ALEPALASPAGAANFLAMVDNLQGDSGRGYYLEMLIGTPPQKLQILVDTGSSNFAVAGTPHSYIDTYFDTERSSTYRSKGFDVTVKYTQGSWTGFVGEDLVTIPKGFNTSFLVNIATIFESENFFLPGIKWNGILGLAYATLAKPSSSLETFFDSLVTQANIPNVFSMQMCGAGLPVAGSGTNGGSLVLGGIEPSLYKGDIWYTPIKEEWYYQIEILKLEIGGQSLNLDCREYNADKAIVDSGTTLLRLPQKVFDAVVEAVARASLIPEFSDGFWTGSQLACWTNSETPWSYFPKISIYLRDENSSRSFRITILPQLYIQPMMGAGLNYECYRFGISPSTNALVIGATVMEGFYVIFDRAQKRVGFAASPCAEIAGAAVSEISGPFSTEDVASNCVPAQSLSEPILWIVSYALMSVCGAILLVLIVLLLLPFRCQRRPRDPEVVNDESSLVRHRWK
In short: as §1

Chain of Recombinant Cat D (P07339 65-412): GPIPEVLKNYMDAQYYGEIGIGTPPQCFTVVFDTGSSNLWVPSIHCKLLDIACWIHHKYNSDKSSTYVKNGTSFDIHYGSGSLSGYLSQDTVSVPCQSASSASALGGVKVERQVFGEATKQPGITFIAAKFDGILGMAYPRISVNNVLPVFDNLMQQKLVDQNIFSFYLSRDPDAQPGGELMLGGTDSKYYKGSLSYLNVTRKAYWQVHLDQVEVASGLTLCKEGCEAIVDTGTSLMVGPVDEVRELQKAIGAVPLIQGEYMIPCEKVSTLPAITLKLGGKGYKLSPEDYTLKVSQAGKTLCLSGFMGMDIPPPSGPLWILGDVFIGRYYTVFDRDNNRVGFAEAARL

IC50 (Recombinant Cat D; Cathepsin D FRET enzyme assay) [µM]	IC50 ([1]; BACE1 cell-based assay) [µM]	IC50 (human recombinant BACE1; BACE1 FRET enzyme assay) [µM]	IC50 (human recombinant BACE2; BACE2 FRET enzyme assay) [µM]	IC50 (Recombinant Cat D) [µM]	IC50 [1] [µM]	IC50 (human recombinant BACE1) [µM]	IC50 (human recombinant BACE2) [µM]	Compound
				1220	0.00785	0.00195	0.109	CC#CCOc1cnc2c(Nc3cc(F)c(F)c([C@@]4(C)N=C(N)S[C@@]5(COC)C[C@H]54)c3)nccc2c1 [Example 903, N-(3-((1S,5S,6S)-3-amino-1-(methoxymethyl)-5-methyl-2-thia-4-azabicyclo[4.1.0]hept-3-en-5-yl)-4,5-difluorophenyl)-3-(2-butyn-1-yloxy)-1,7-naphthyridin-8-amine]
				> 400	0.0083	0.016	0.146	COC[C@]12C[C@H]1[C@@](C)(c1cc(NC(=O)c3cnc(OCCF)cn3)ccc1F)N=C(N)S2 [Example 1052, N-(3-((1S,5S,6S)-3-amino-1-(methoxymethyl)-5-methyl-2-thia-4-azabicyclo[4.1.0]hept-3-en-5-yl)-4-fluorophenyl)-5-(2-fluoroethoxy)-2-pyrazinecarboxamide]
				1580	0.00294	0.000256	0.0636	COC[C@]12C[C@H]1[C@@](C)(c1cc(NC(=O)c3cnc(OCC(F)(F)F)cn3)cc(C)c1F)N=C(N)S2 [Example 1065, N-(3-((1S,5S,6S)-3-amino-1-(methoxymethyl)-5-methyl-2-thia-4-azabicyclo[4.1.0]hept-3-en-5-yl)-4-fluoro-5-methylphenyl)-5-(2,2,2-trifluoroethoxy)-2-pyrazinecarboxamide]
				72.1	0.00108	0.000384	0.00516	C#CCOc1cnc(C(=O)Nc2ccc(F)c([C@@]3(C)N=C(N)S[C@@]4(C(=O)N5CCOCC5)C[C@H]43)c2)cn1 [Example 1005, N-(3-((1S,5S,6S)-3-amino-5-methyl-1-(morpholine-4-carbonyl)-2-thia-4-azabicyclo[4.1.0]hept-3-en-5-yl)-4-fluorophenyl)-5-(prop-2-yn-1-yloxy)pyrazine-2-carboxamide]
				1360	0.0135	0.00319	0.204	COC[C@]12C[C@H]1[C@@](C)(c1cc(NC(=O)c3cnc(OCC(C)OC)cn3)cc(F)c1F)N=C(N)S2 (stereo partly drawn) [Example 1023, N-(3-((1S,5S,6S)-3-amino-1-(methoxymethyl)-5-methyl-2-thia-4-azabicyclo[4.1.0]hept-3-en-5-yl)-4,5-difluorophenyl)-5-(2-methoxypropoxy)pyrazine-2-carboxamide]
				> 400	0.00363	0.000567	< 0.00203	C[C@]1(c2cc(NC(=O)c3ccc(Cl)cn3)ccc2F)N=C(N)S[C@@]2(C#N)C[C@H]21 [Example 929, N-(3-((1S,5S,6S)-3-amino-1-cyano-5-methyl-2-thia-4-azabicyclo[4.1.0]hept-3-en-5-yl)-4-fluorophenyl)-5-chloro 2-pyridinecarboxamide]
				1640	0.12	0.123	0.807	COC[C@]12C[C@H]1[C@@](C)(c1cc(NC(=O)c3cnc(O[C@H](C)C(F)(F)F)cn3)ccc1F)N=C(N)S2 (single isomer, unassigned) [Example 996]

Second part, the molecule before the results:

Compound	IC50 (Recombinant Cat D; Cathepsin D FRET enzyme assay) [µM]	IC50 ([1]; BACE1 cell-based assay) [µM]	IC50 (human recombinant BACE1; BACE1 FRET enzyme assay) [µM]	IC50 (human recombinant BACE2; BACE2 FRET enzyme assay) [µM]	IC50 (Recombinant Cat D) [µM]	IC50 [1] [µM]	IC50 (human recombinant BACE1) [µM]	IC50 (human recombinant BACE2) [µM]
COc1cnc(C(=O)Nc2ccc(F)c([C@@]3(CF)N=C(N)S[C@@]4(CO)C[C@H]43)c2)c(C)n1 [Example 75, N-(3-((1S,5S,6S)-3-amino-5-(fluoromethyl)-1-(hydroxymethyl)-2-thia-4-azabicyclo[4.1.0]hept-3-en-5-yl)-4-fluorophenyl)-5-methoxy-3-methyl-2-pyrazinecarboxamide]	> 400	0.0136	0.012	0.0295				
C[C@]1(c2cc(Nc3nccc4nc(OCc5ncco5)cnc34)ccc2F)N=C(N)S[C@@]2(C(=O)NC3CC3)C[C@H]21 [Example 796, (1S,5S,6S)-3-amino-N-cyclopropyl-5-(2-fluoro-5-((2-(1,3-oxazol-2-ylmethoxy)pyrido[3,4-b]pyrazin-5-yl)amino)phenyl)-5-methyl-2-thia-4-azabicyclo[4.1.0]hept-3-ene-1-carboxamide]					543	0.00354	0.000859	0.0628
COC[C@]12C[C@H]1[C@@](C)(c1cc(NC(=O)c3ncc(OCC(F)(F)F)cc3C)cc(F)c1F)N=C(N)S2 [Example 675, N-(3-((1S,5S,6S)-3-amino-1-(methoxymethyl)-5-methyl-2-thia-4-azabicyclo[4.1.0]hept-3-en-5-yl)-4,5-difluorophenyl)-3-methyl-5-(2,2,2-trifluoroethoxy)-2-pyridinecarboxamide]					1010	0.0519	0.0124	0.703
N#CC[C@]12C[C@H]1[C@@](CF)(c1cc(Nc3nccc4cc(C#N)cnc34)ccc1F)N=C(N)S2 [Example 719, 8-((3-((1R,5S,6S)-3-amino-1-(cyanomethyl)-5-(fluoromethyl)-2-thia-4-azabicyclo[4.1.0]hept-3-en-5-yl)-4-fluorophenyl)amino)-1,7-naphthyridine-3-carbonitrile]					1490	0.0138	0.00442	0.00397
C#CCOc1cnc(C(=O)Nc2ccc(F)c([C@@]3(C)N=C(N)S[C@@]4([C@@H](O)C(F)(F)F)C[C@H]43)c2)cn1 [Example 674, N-(3-((1S,5S,6S)-3-amino-5-methyl-1-((1S)-2,2,2-trifluoro-1-hydroxyethyl)-2-thia-4-azabicyclo[4.1.0]hept-3-en-5-yl)-4-fluorophenyl)-5-(2-propyn-1-yloxy)-2-pyrazinecarboxamide]					149	0.000776	0.000368	0.0133
N#Cc1cnc2c(Nc3cc(F)c(F)c([C@@]4(CF)N=C(N)S[C@@]5(CO)C[C@H]54)c3)nccc2c1 [Example 48, 8-((3-((1S,5S,6S)-3-amino-5-(fluoromethyl)-1-(hydroxymethyl)-2-thia-4-azabicyclo[4.1.0]hept-3-en-5-yl)-4,5-fluorophenyl)amino)-7-naphthyridine-3-carbonitrile]	> 400	0.0149	0.00357	0.00323				
C[C@]1(c2cc(Nc3nccc4cc(C#N)cnc34)cc(F)c2F)N=C(N)S[C@@]2(CF)C[C@H]21 [Example 60, 8-((3-((1S,5S,6S)-3-amino-1-(fluoromethyl)-5-methyl-2-thia-4-azabicyclo[4.1.0]hept-3-en-5-yl)-4,5-difluorophenyl)amino)-1,7-naphthyridine-3-carbonitrile]	204	0.00767	0.00135	0.00174				
C[C@]1(c2cc(NC(=O)c3ccc(Cl)cn3)ccc2F)N=C(N)S[C@@]2(C(F)F)C[C@@H]12 [Example 818, N-(3-((1S,5S,6S)-3-amino-1-(difluoromethyl)-5-methyl-2-thia-4-azabicyclo[4.1.0]hept-3-en-5-yl)-4-fluorophenyl)-5-chloro-2-pyridinecarboxamide]					152	0.00164	0.000587	< 0.00203
C#CCOc1cnc2c(Nc3ccc(F)c([C@@]4(C)N=C(N)S[C@@]5(C(=O)NC6CC6)C[C@H]54)c3)ncnc2c1 [Example 791, (1S,5S,6S)-3-amino-N-cyclopropyl-5-(2-fluoro-5-((7-(2-propyn-1-yloxy)pyrido[3,2-d]pyrimidin-4-yl)amino)phenyl)-5-methyl-2-thia-4-azabicyclo[4.1.0]hept-3-ene-1-carboxamide]					317	0.00183	0.000658	0.0712
